Experimental data reported in ChEMBL document CHEMBL6127052, “Discovery of membrane-targeting amphiphilic honokiol derivatives containing an oxazolethione moiety to combat methicillin-resistant Staphylococcus aureus (MRSA) infections” (Eur J Med Chem, 2024).

System: Staphylococcus aureus
Experiment: Antibacterial activity against Staphylococcus aureus ATCC 29213 by CLSI based micro-broth dilution method
Assay type: functional
C=CCc1cc(-c2ccc(OCCC[N+](C)(C)CC(=O)NCCCC)c(CC=C)c2)c2oc(=S)n(Cc3ccccc3F)c2c1.[Br-] gave an MIC of 8 µg/mL.
With C=CCc1cc(-c2ccc(OCCC[N+](C)(C)CC(=O)NCCCC)c(CC=C)c2)c2oc(=S)n(Cc3ccc(Cl)c(Br)c3)c2c1.[Br-] the MIC was over 128 µg/mL.
Work on C=CCc1cc(-c2ccc(OCCC[N+](C)(C)CC(=O)NCCCC)c(CC=C)c2)c2oc(=S)n(Cc3ccc(F)c(Cl)c3)c2c1.[Br-] yielded an MIC of 128 µg/mL.

System: Staphylococcus aureus
Experiment: Antibacterial activity against methicillin-resistant Staphylococcus aureus N315 by CLSI based micro-broth dilution method
Assay type: functional
Work on C=CCc1cc(-c2ccc(OCCC[N+](C)(C)CC(=O)NCCCC)c(CC=C)c2)c2oc(=S)n(Cc3ccccc3F)c2c1.[Br-] yielded an MIC of 8 µg/mL.
With C=CCc1cc(-c2ccc(OCCC[N+](C)(C)CC(=O)NCCCC)c(CC=C)c2)c2oc(=S)n(Cc3ccc(Cl)c(Br)c3)c2c1.[Br-] the MIC was over 128 µg/mL.
C=CCc1cc(-c2ccc(OCCC[N+](C)(C)CC(=O)NCCCC)c(CC=C)c2)c2oc(=S)n(Cc3ccc(F)c(Cl)c3)c2c1.[Br-] showed an MIC of 64 µg/mL.

System: Staphylococcus aureus
Experiment: Antibacterial activity against methicillin-resistant Staphylococcus aureus clinical isolate M11 by CLSI based micro-broth dilution method
Assay type: functional
Work on C=CCc1cc(-c2ccc(OCCC[N+](C)(C)CC(=O)NCCCC)c(CC=C)c2)c2oc(=S)n(Cc3ccccc3F)c2c1.[Br-] yielded an MIC of 4 µg/mL.
For C=CCc1cc(-c2ccc(OCCC[N+](C)(C)CC(=O)NCCCC)c(CC=C)c2)c2oc(=S)n(Cc3ccc(Cl)c(Br)c3)c2c1.[Br-], the MIC was 128 µg/mL.
C=CCc1cc(-c2ccc(OCCC[N+](C)(C)CC(=O)NCCCC)c(CC=C)c2)c2oc(=S)n(Cc3ccc(F)c(Cl)c3)c2c1.[Br-] showed an MIC of 16 µg/mL.

System: Staphylococcus aureus
Experiment: Antibacterial activity against methicillin-resistant Staphylococcus aureus clinical isolate M12 by CLSI based micro-broth dilution method
Assay type: functional
Work on C=CCc1cc(-c2ccc(OCCC[N+](C)(C)CC(=O)NCCCC)c(CC=C)c2)c2oc(=S)n(Cc3ccccc3F)c2c1.[Br-] yielded an MIC of 4 µg/mL.
C=CCc1cc(-c2ccc(OCCC[N+](C)(C)CC(=O)NCCCC)c(CC=C)c2)c2oc(=S)n(Cc3ccc(Cl)c(Br)c3)c2c1.[Br-] gave an MIC of over 128 µg/mL.
For C=CCc1cc(-c2ccc(OCCC[N+](C)(C)CC(=O)NCCCC)c(CC=C)c2)c2oc(=S)n(Cc3ccc(F)c(Cl)c3)c2c1.[Br-], the MIC was 8 µg/mL.

System: Staphylococcus aureus
Experiment: Antibacterial activity against methicillin-resistant Staphylococcus aureus clinical isolate M13 by CLSI based micro-broth dilution method
Assay type: functional
C=CCc1cc(-c2ccc(OCCC[N+](C)(C)CC(=O)NCCCC)c(CC=C)c2)c2oc(=S)n(Cc3ccccc3F)c2c1.[Br-] showed an MIC of 8 µg/mL.
With C=CCc1cc(-c2ccc(OCCC[N+](C)(C)CC(=O)NCCCC)c(CC=C)c2)c2oc(=S)n(Cc3ccc(Cl)c(Br)c3)c2c1.[Br-] the MIC was over 128 µg/mL.
C=CCc1cc(-c2ccc(OCCC[N+](C)(C)CC(=O)NCCCC)c(CC=C)c2)c2oc(=S)n(Cc3ccc(F)c(Cl)c3)c2c1.[Br-] showed an MIC of 16 µg/mL.

System: Staphylococcus aureus
Experiment: Antibacterial activity against methicillin-resistant Staphylococcus aureus clinical isolate M14 by CLSI based micro-broth dilution method
Assay type: functional
Molecule C=CCc1cc(-c2ccc(OCCC[N+](C)(C)CC(=O)NCCCC)c(CC=C)c2)c2oc(=S)n(Cc3ccccc3F)c2c1.[Br-] has an MIC of 8 µg/mL.
In the case of C=CCc1cc(-c2ccc(OCCC[N+](C)(C)CC(=O)NCCCC)c(CC=C)c2)c2oc(=S)n(Cc3ccc(Cl)c(Br)c3)c2c1.[Br-], the MIC is reported as over 128 µg/mL.
With C=CCc1cc(-c2ccc(OCCC[N+](C)(C)CC(=O)NCCCC)c(CC=C)c2)c2oc(=S)n(Cc3ccc(F)c(Cl)c3)c2c1.[Br-] the MIC was 32 µg/mL.

System: Staphylococcus aureus
Experiment: Antibacterial activity against methicillin-resistant Staphylococcus aureus clinical isolate M16 by CLSI based micro-broth dilution method
Assay type: functional
In the case of C=CCc1cc(-c2ccc(OCCC[N+](C)(C)CC(=O)NCCCC)c(CC=C)c2)c2oc(=S)n(Cc3ccccc3F)c2c1.[Br-], the MIC is reported as 8 µg/mL.
Work on C=CCc1cc(-c2ccc(OCCC[N+](C)(C)CC(=O)NCCCC)c(CC=C)c2)c2oc(=S)n(Cc3ccc(Cl)c(Br)c3)c2c1.[Br-] yielded an MIC of over 128 µg/mL.
C=CCc1cc(-c2ccc(OCCC[N+](C)(C)CC(=O)NCCCC)c(CC=C)c2)c2oc(=S)n(Cc3ccc(F)c(Cl)c3)c2c1.[Br-] showed an MIC of 16 µg/mL.

System: Staphylococcus aureus
Experiment: Antibacterial activity against methicillin-resistant Staphylococcus aureus clinical isolate M17 by CLSI based micro-broth dilution method
Assay type: functional
C=CCc1cc(-c2ccc(OCCC[N+](C)(C)CC(=O)NCCCC)c(CC=C)c2)c2oc(=S)n(Cc3ccccc3F)c2c1.[Br-] gave an MIC of 8 µg/mL.
C=CCc1cc(-c2ccc(OCCC[N+](C)(C)CC(=O)NCCCC)c(CC=C)c2)c2oc(=S)n(Cc3ccc(Cl)c(Br)c3)c2c1.[Br-] gave an MIC of 128 µg/mL.
C=CCc1cc(-c2ccc(OCCC[N+](C)(C)CC(=O)NCCCC)c(CC=C)c2)c2oc(=S)n(Cc3ccc(F)c(Cl)c3)c2c1.[Br-] gave an MIC of 16 µg/mL.

System: Staphylococcus aureus
Experiment: Antibacterial activity against methicillin-resistant Staphylococcus aureus clinical isolate M20 by CLSI based micro-broth dilution method
Assay type: functional
For C=CCc1cc(-c2ccc(OCCC[N+](C)(C)CC(=O)NCCCC)c(CC=C)c2)c2oc(=S)n(Cc3ccccc3F)c2c1.[Br-], the MIC was 8 µg/mL.
With C=CCc1cc(-c2ccc(OCCC[N+](C)(C)CC(=O)NCCCC)c(CC=C)c2)c2oc(=S)n(Cc3ccc(Cl)c(Br)c3)c2c1.[Br-] the MIC was over 128 µg/mL.
For C=CCc1cc(-c2ccc(OCCC[N+](C)(C)CC(=O)NCCCC)c(CC=C)c2)c2oc(=S)n(Cc3ccc(F)c(Cl)c3)c2c1.[Br-], the MIC was 16 µg/mL.

System: Staphylococcus aureus
Experiment: Antibacterial activity against methicillin-resistant Staphylococcus aureus clinical isolate M21 by CLSI based micro-broth dilution method
Assay type: functional
With C=CCc1cc(-c2ccc(OCCC[N+](C)(C)CC(=O)NCCCC)c(CC=C)c2)c2oc(=S)n(Cc3ccccc3F)c2c1.[Br-] the MIC was 4 µg/mL.
C=CCc1cc(-c2ccc(OCCC[N+](C)(C)CC(=O)NCCCC)c(CC=C)c2)c2oc(=S)n(Cc3ccc(Cl)c(Br)c3)c2c1.[Br-] showed an MIC of 128 µg/mL.
C=CCc1cc(-c2ccc(OCCC[N+](C)(C)CC(=O)NCCCC)c(CC=C)c2)c2oc(=S)n(Cc3ccc(F)c(Cl)c3)c2c1.[Br-] showed an MIC of 8 µg/mL.

System: Staphylococcus aureus
Experiment: Antibacterial activity against methicillin-resistant Staphylococcus aureus clinical isolate M22 by CLSI based micro-broth dilution method
Assay type: functional
For C=CCc1cc(-c2ccc(OCCC[N+](C)(C)CC(=O)NCCCC)c(CC=C)c2)c2oc(=S)n(Cc3ccccc3F)c2c1.[Br-], the MIC was 32 µg/mL.
C=CCc1cc(-c2ccc(OCCC[N+](C)(C)CC(=O)NCCCC)c(CC=C)c2)c2oc(=S)n(Cc3ccc(Cl)c(Br)c3)c2c1.[Br-] showed an MIC of 128 µg/mL.
For C=CCc1cc(-c2ccc(OCCC[N+](C)(C)CC(=O)NCCCC)c(CC=C)c2)c2oc(=S)n(Cc3ccc(F)c(Cl)c3)c2c1.[Br-], the MIC was 32 µg/mL.

System: Staphylococcus aureus
Experiment: Antibacterial activity against methicillin-resistant Staphylococcus aureus clinical isolate M23 by CLSI based micro-broth dilution method
Assay type: functional
Work on C=CCc1cc(-c2ccc(OCCC[N+](C)(C)CC(=O)NCCCC)c(CC=C)c2)c2oc(=S)n(Cc3ccccc3F)c2c1.[Br-] yielded an MIC of 8 µg/mL.
C=CCc1cc(-c2ccc(OCCC[N+](C)(C)CC(=O)NCCCC)c(CC=C)c2)c2oc(=S)n(Cc3ccc(Cl)c(Br)c3)c2c1.[Br-] showed an MIC of over 128 µg/mL.
Molecule C=CCc1cc(-c2ccc(OCCC[N+](C)(C)CC(=O)NCCCC)c(CC=C)c2)c2oc(=S)n(Cc3ccc(F)c(Cl)c3)c2c1.[Br-] has an MIC of 32 µg/mL.

System: Escherichia coli
Experiment: Antibacterial activity against Escherichia coli ATCC 25922 by CLSI based micro-broth dilution method
Assay type: functional
Work on C=CCc1cc(-c2ccc(OCCC[N+](C)(C)CC(=O)NCCCC)c(CC=C)c2)c2oc(=S)n(Cc3ccccc3F)c2c1.[Br-] yielded an MIC of over 128 µg/mL.
For C=CCc1cc(-c2ccc(OCCC[N+](C)(C)CC(=O)NCCCC)c(CC=C)c2)c2oc(=S)n(Cc3ccc(Cl)c(Br)c3)c2c1.[Br-], the MIC was over 128 µg/mL.
Work on C=CCc1cc(-c2ccc(OCCC[N+](C)(C)CC(=O)NCCCC)c(CC=C)c2)c2oc(=S)n(Cc3ccc(F)c(Cl)c3)c2c1.[Br-] yielded an MIC of over 128 µg/mL.

System: not listed separately
Experiment: Hemolytic activity in sheep erythrocytes incubated for 1 hr by absorbance based assay
Assay type: toxicity, cell-based, Ovis aries, Erythrocyte
With C=CCc1cc(-c2ccc(OCCC[N+](C)(C)CC(=O)NCCCC)c(CC=C)c2)c2oc(=S)n(Cc3ccccc3F)c2c1.[Br-] the HC50 at 1 h was over 160 µg/mL.
C=CCc1cc(-c2ccc(OCCC[N+](C)(C)CC(=O)NCCCC)c(CC=C)c2)c2oc(=S)n(Cc3ccc(Cl)c(Br)c3)c2c1.[Br-] showed an HC50 at 1 h of over 160 µg/mL.
In the case of C=CCc1cc(-c2ccc(OCCC[N+](C)(C)CC(=O)NCCCC)c(CC=C)c2)c2oc(=S)n(Cc3ccc(F)c(Cl)c3)c2c1.[Br-], the HC50 at 1 h is reported as over 160 µg/mL.

System: not listed separately
Experiment: Selectivity index, ratio of HC50 for hemolytic activity in sheep erythrocytes to MIC for antibacterial activity against Staphylococcus aureus ATCC 29213
Assay type: toxicity, cell-based, RBC
In the case of C=CCc1cc(-c2ccc(OCCC[N+](C)(C)CC(=O)NCCCC)c(CC=C)c2)c2oc(=S)n(Cc3ccccc3F)c2c1.[Br-], the selectivity ratio is reported as over 20.
Work on C=CCc1cc(-c2ccc(OCCC[N+](C)(C)CC(=O)NCCCC)c(CC=C)c2)c2oc(=S)n(Cc3ccc(Cl)c(Br)c3)c2c1.[Br-] yielded a selectivity ratio of 1.3.
In the case of C=CCc1cc(-c2ccc(OCCC[N+](C)(C)CC(=O)NCCCC)c(CC=C)c2)c2oc(=S)n(Cc3ccc(F)c(Cl)c3)c2c1.[Br-], the selectivity ratio is reported as over 1.25.
